# Paper PMC6696115, “Characterization of Antimicrobial, Antioxidant, and Leishmanicidal Activities of Schiff Base Derivatives of 4-Aminoantipyrine” (Molecules, 2019)
# Legend:
# [1] = tested on: Aspergillus niger ATCC 6275; experiment: antimicrobial serial microdilution, A. niger; format: cell-based; settings: serial microdilution, 35 °C, 48 h; for MIC: 96-well plates, max 2% DMSO
# Protocol: (§1) The in vitro antifungal and antimicrobial activities were determined by testing the Schiff bases against the fungi Saccharomyces cerevisiae, Candida albicans, and Aspergillus niger and the bacteria Staphylococcus aureus, Enterococcus faecalis (Gram-positive), Pseudomonas aeruginosa, and Escherichia coli (Gram-negative).
# (§2) The bacterial inoculum was prepared by emulsifying overnight colonies from an agar medium in broth (Mueller–Hinton broth). The suspensions were adjusted to a final organism density of 5 × 10^5 colony former units (cfu)/mL. […] The emulsifying of A. niger cultures was done by pouring 5 mL of saline and 0.1% of polysorbate 80 over the Petri dishes. Then, 100 µL of this suspension were diluted in 5 mL of saline and adjusted to an optical density of 0.1 at 530 nm. For S. cerevisiae, fresh exponential YPAD (yeast extract 1%, peptone 2%, adenine 0.004%, […]) cultures were adjusted to an optical density of 0.5 at 600 nm, and then diluted to the equivalent of 1 × 10^4 cells/mL (10^−3 dilution). Stock solutions of Schiff bases were prepared by dissolving them in DMSO at 10 mg/mL. […] The range of concentrations used was empirically selected for each organisms and the Schiff base. Drug sensitivities were assayed by serial dilutions in 96-well plates as previously described. A row with media and cells but without drug was the positive control. The blank was done by preparing a row with media and drugs, but without cells. Plates were fitted with a tight lid before incubation to prevent desiccation. […] The minimum bactericidal concentration (MBC) and fungicidal concentration (MFC) were determined by spreading 100 µL of culture from each well onto a plate (Mueller–Hinton agar for bacteria, Sabouraud dextrose agar for fungi except S. cerevisiae, and YPAD for S. cerevisiae).
# [2] = tested on: S. cerevisiae wild-type (W303 and BY4741 backgrounds); experiment: drop test, wild-type yeast; format: cell-based, Saccharomyces cerevisiae; settings: 200 µg/mL, 48 h, 25 °C
# Protocol: Since the Schiff bases have a limited solubility in dimethyl sulfoxide (DMSO), first, we tested the toxicity of DMSO against the selected microorganism. […] Wild-type cells from W303 background seem to be more resistant, and sensitivity is observed at around 4% DMSO.
# (§3) Next, we wanted to evaluate the oxidative activity. To do this, drop test assays were performed with wild-type (W303 and BY4741 backgrounds) and sod1 (BY4741 background) yeast cells in the presence of 200 µg/mL of the analyzed Schiff bases (Figure 3). The SOD1 gene encodes superoxide dismutase 1, an enzyme with a major role in detoxifying ROS species generated during metabolism or because of environmental exposure. sod1 mutant cells are unprotected against oxidative agents, decreasing survival in their presence. […] Also, wild-type cells are shown as control, unaffected by the Schiff bases.
# (§4) For the drop test with S. cerevisiae, wild-type strain (background W303), and wild type and sod1 mutant cells (background BY4741) were grown overnight in YPAD media until an optical density of 0.5 at 600 nm was reached (equivalent to 1 × 10^7 cells/mL). Three serial dilutions were prepared and 5 µL of each was spotted onto a plate (approximately 1 × 10^5, 1 × 10^4, 1 × 10^3, and 1 × 10^2 cells/spot). YPAD plates were supplemented with 200 µg/mL of each Schiff base, and one plate supplemented with 2% DMSO and one plate with YPAD without any drug were used as controls. Plates were incubated at 25 °C for 24, 48, and 72 h.
# [3] = tested on: promastigotes from L. mexicana (M379); experiment: leishmanicidal activity, MTT colorimetric assay; format: cell-based; settings: Leishmania mexicana, 48 h exposure, 1% DMSO
# Protocol: Leishmanicidal activities of all Schiff bases were evaluated by measuring promastigote mitochondrial activity using MTT colorimetric assay as described previously. […] The medium was renewed every four days. Parasite density was determined in a Neubauer chamber.
# Into each well of a 96-well cell culture dish was dispensed 1 × 10^6 parasites. A stock solution of each of the Schiff Base was prepared in DMSO, and serial dilutions were added to the parasite suspension, keeping the solvent concentration at 1%. The final volume was 100 µL for each well and triplicate conditions were carried out. Pentamidine treatment (100 µg/mL) and untreated parasites were used as positive control and negative control, respectively. After exposure to the compounds for 48 h in culture medium, 10 µL of a solution of 5 mg/mL MTT dissolved in PBS was added to each well. […] Later, the plate was centrifuged at 4400 rpm for 10 min and the culture medium was then aspirated. Next, 100 µL of DMSO were added into each well to solubilize the formazan and the plate was shaken for 5 min. The colored formazan salt was measured by recording changes in absorbance at 570 nm using a microplate reader, a BioTek Synergy HT spectrophotometer. A reference wavelength of 630 nm was used to subtract background. Optical densities were analyzed as the quantity of formazan is directly proportional to the number of viable parasites. Data were analyzed with the statistical software GraphPad Prism.
# [4] = tested on: S. cerevisiae sod1 mutant (BY4741); experiment: growth inhibition (OD600) of sod1 mutant yeast, oxidative effect; format: cell-based, Saccharomyces cerevisiae; settings: sod1 mutant BY4741, unit not given
# Protocol: (§5) Next, we wanted to evaluate the oxidative activity. To do this, drop test assays were performed with wild-type (W303 and BY4741 backgrounds) and sod1 (BY4741 background) yeast cells in the presence of 200 µg/mL of the analyzed Schiff bases (Figure 3). The SOD1 gene encodes superoxide dismutase 1, an enzyme with a major role in detoxifying ROS species generated during metabolism or because of environmental exposure. sod1 mutant cells are unprotected against oxidative agents, decreasing survival in their presence.
# (§6) (A) Drop test of serial dilution of yeast cell cultures (wild type from genetic background W303, wild type from genetic background BY4741, and sod1 mutant from genetic background BY4741) exposed to Schiff bases at 200 µg/mL. A control without drug and with 2% DMSO are included.
# as §2
# [5] = tested on: S. cerevisiae wild type (BY4741); experiment: growth inhibition (OD600) of wild-type yeast, oxidative effect; format: cell-based, Saccharomyces cerevisiae; settings: unit not given
# Protocol: as §5, §6, §2
# [6] = tested on: Escherichia coli ATCC 25922; experiment: antimicrobial serial microdilution, E. coli; format: cell-based; settings: serial microdilution, 37 °C, 24 h; for IC50 / MIC: Escherichia coli, ATCC25922; for NIC E. coli: noninhibitory concentration
# Protocol: as §1, §2
# [7] = tested on: Staphylococcus aureus ATCC 29213; experiment: antimicrobial serial microdilution, S. aureus; format: cell-based; settings: serial microdilution, 37 °C, 24 h
# Protocol: as §1, §2
# [8] = tested on: S. cerevisiae sod1 mutant cells (background BY4741); experiment: drop test, sod1 mutant yeast; format: cell-based, Saccharomyces cerevisiae; settings: 200 µg/mL, 48 h, 25 °C, compared to control
# Protocol: as §3, §4
# [9] = tested on: S. cerevisiae (backgrounds W303 and BY4741); experiment: antimicrobial serial microdilution, S. cerevisiae; format: cell-based, Saccharomyces cerevisiae; settings: serial microdilution, 35 °C, 48 h; for IC50 / MIC: Saccharomyces cerevisiae; for IC50: read-out: IC50 S. cerevisiae (converted); for MIC: read-out: MIC S. cerevisiae; for NIC S. cerevisiae: noninhibitory concentration
# Protocol: as §1, §2
# [10] = tested on: Candida albicans ATCC 10231; experiment: antimicrobial serial microdilution, C. albicans; format: cell-based; settings: serial microdilution, 35 °C, 48 h
# Protocol: as §1, §2
# [11] = tested on: S. cerevisiae; experiment: biocidal/biostatic evaluation, plating on drug-free media, S. cerevisiae; format: cell-based, Saccharomyces cerevisiae; settings: 24 h exposure, then plated on media free of drug
# Protocol: as §2, with “cells.” for “cells. Plates were fitted with a tight lid before incubation to prevent desiccation.”
# [12] = DPPH radical scavenging assay; format: biochemical; settings: for IC50: 30 min, room temperature, dark, absorbance 515 nm
# Protocol: This was used immediately. The experimental procedure was adapted from the literature. Briefly, in a 96-well plate, 100 µL of solution of DPPH (2, 2-diphenyl-1-picrylhydrazyl) radical (0.2 mM in methanol) was added to 100 µL of methanolic solutions of 3a–j, 4, or 5, prepared as serial two-fold dilutions from the stock solution. Standards were also prepared in the same concentrations.
# The percentage of DPPH scavenging was then calculated by using the following formula: % DPPH scavenging=100∗Asample+DPPH−Asample blank/ADPPH−Asolvent
# [13] = tested on: P. aeruginosa ATCC 27853; experiment: antimicrobial serial microdilution, P. aeruginosa; format: cell-based; settings: Pseudomonas aeruginosa, ATCC27853, 37 °C, 24 h
# Protocol: as §1, §2
# [14] = tested on: Enterococcus faecalis ATCC 29212; experiment: antimicrobial serial microdilution, E. faecalis; format: cell-based; settings: Enterococcus faecalis, ATCC29212; serial microdilution, 37 °C, 24 h
# Protocol: as §1, §2
# [15] = tested on: RAW 264.7 cells; experiment: cell viability, MTT dye assay; format: cell-based, murine; settings: RAW 264.7, exposure to 300 µM (limited solubility), 48 h
# Protocol: The specificity and selectivity for the pathogen target is a key point for any potential drug.
# The medium was renewed once a week. The viability was determined using MTT (thiazolyl blue tetrazolium bromide) dye assay as described previously for leishmanicidal activity assessment, with some variations. Here, 5 × 10^4 cells/well in a final volume of 100 µL were deposited into a 96-well plate in triplicate. Saponin (2 and 4 mg/mL) and untreated cells were used as the positive control and negative control, respectively. Schiff bases were dissolved in DMSO to obtain different serial concentrations (0.01–2000 µM). […] Cells were pelleted by centrifugation at 4400 rpm for 10 minutes and the media was removed. Next, 100 µL/well of DMSO were added and the absorbance at 570 nm was recorded. A reference wavelength of 630 nm was used for background subtraction.
# [16] = Staphylococcus aureus, ATCC29213
smiles,measurement,setting,value
"Cc1c(N=CC=Cc2ccccc2)c(=O)n(-c2ccccc2)n1C [Compound 5, 4-Phenylallylideneamino-1,5-dimethyl-2-phenyl-1H-pyrazol-3(2H)-one]",MIC,"[1]; Aspergillus niger, ATCC6275",> 200 µg/mL
same,effect on wild-type cells in drop test,[2],unaffected
same,IC50,[3],81.5 ± 12.5 µM
same,NIC sod1,[4],19.5 ± 0.8
same,MIC sod1,[4]; in µg/mL,39.4 ± 0.9
same,NIC Wt,[5],22.6 ± 0.6
same,MIC Wt,[5]; in µg/mL,65.2 ± 0.2
same,IC50,[6],12.4 µg/mL
same,MIC,[6],22.6 ± 14.1 µg/mL
same,NIC E. coli,[6],5.1 ± 2.4 µg/mL
same,MIC,[7]; [16],> 200 µg/mL
same,sensitivity of sod1 cells in drop test,[8],sensitive
same,IC50,[9],22.8 µg/mL
same,MIC,[9],76.7 ± 5.7 µg/mL
same,NIC S. cerevisiae,[9],6.6 ± 0.7 µg/mL
same,MIC,"[10]; Candida albicans, ATCC10231",> 200 µg/mL
same,inhibitory mechanism (fungicidal or fungistatic),[11],fungicidal
same,IC50,[12],> 200 µM
same,antioxidant activity detected in the DPPH assay,[12]; statement in words,no significant antioxidant activity
same,MIC,[13],> 200 µg/mL
same,MIC,[14],> 200 µg/mL
same,melting point,,165.5 to 165.9 °C
"Cc1c(N=Cc2cc([N+](=O)[O-])ccc2O)c(=O)n(-c2ccccc2)n1C [Compound 3f, 4-(2-Hydroxy-5-nitrobenzylideneamino)-1,5-dimethyl-2-phenyl-1H-pyrazol-3(2H)-one]",IC50,"[1]; Aspergillus niger, ATCC6275",10.6 µg/mL
same,MIC,"[1]; Aspergillus niger, ATCC6275",32.6 ± 2.1 µg/mL
same,NIC A. niger,[1]; noninhibitory concentration,3.4 ± 0.5 µg/mL
same,IC50,[3],5.3 ± 2.8 µM
same,IC50,[6],15.8 µg/mL
same,MIC,[6],47.7 ± 1 µg/mL
same,NIC E. coli,[6],4.9 ± 0.2 µg/mL
same,IC50,[7]; [16],9.5 µg/mL
same,MIC,[7]; [16],27.7 ± 4.7 µg/mL
same,NIC S. aureus,[7]; noninhibitory concentration,3.3 ± 1.5 µg/mL
same,IC50,[9],17.9 µg/mL
same,MIC,[9],55.9 ± 6.2 µg/mL
same,NIC S. cerevisiae,[9],5.6 ± 0.9 µg/mL
same,IC50,"[10]; Candida albicans, ATCC10231",10.4 µg/mL
same,MIC,"[10]; Candida albicans, ATCC10231",15.6 ± 0.9 µg/mL
same,NIC C. albicans,[10]; noninhibitory concentration,7.5 ± 1.1 µg/mL
same,IC50,[12],> 200 µM
same,MIC,[13],> 200 µg/mL
same,MIC,[14],> 200 µg/mL
same,melting point,,204.9 to 205.6 °C
"COc1ccc(C=Nc2c(C)n(C)n(-c3ccccc3)c2=O)cc1O [Compound 3e, 4-(3-Hydroxy-4-methoxybenzylideneamino)-1,5-dimethyl-2-phenyl-1H-pyrazol-3(2H)-one]",% Live Cells,[15],27.1 ± 0.8%
same,MIC,"[1]; Aspergillus niger, ATCC6275",> 200 µg/mL
same,IC50,[3],> 200 µM
same,MIC,[6],> 200 µg/mL
same,MIC,[7]; [16],> 200 µg/mL
same,MIC,[9],> 200 µg/mL
same,MIC,"[10]; Candida albicans, ATCC10231",> 200 µg/mL
same,IC50,[12],> 200 µM
same,MIC,[13],> 200 µg/mL
same,MIC,[14],> 200 µg/mL
same,melting point,,246.8 to 247.2 °C
